Results published in PubChem BioAssay (NCI).
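Cells were grown in 96-well plates and exposed to each compound for 48 hours at five concentrations; endpoints were interpolated linearly between bracketing concentrations, or set to the highest concentration if not reached. TGI: total growth inhibition.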

What was measured:
Assay in all cases: NCI-60 cell line screen, 48 h
SNB-19 CNS = test system: SNB-19 CNS
NCI/ADR-RES ovarian = test system: NCI/ADR-RES ovarian
HOP-62 NSCLC = test system: HOP-62 NSCLC
MDA-MB-231 breast = test system: MDA-MB-231 breast
SK-MEL-2 melanoma = test system: SK-MEL-2 melanoma
SK-MEL-5 melanoma = test system: SK-MEL-5 melanoma
HT29 colon = test system: HT29 colon
NCI-H460 lung = test system: NCI-H460 lung
UACC-257 melanoma = test system: UACC-257 melanoma
SF-295 CNS = test system: SF-295 CNS
RXF 393 renal = test system: RXF 393 renal
SF-268 CNS = test system: SF-268 CNS
MALME-3M melanoma = test system: MALME-3M melanoma
CAKI-1 renal = test system: CAKI-1 renal
A549 NSCLC = test system: A549 NSCLC
TK-10 renal = test system: TK-10 renal
BT-549 breast = test system: BT-549 breast
NCI-H522 lung = test system: NCI-H522 lung
SK-OV-3 ovarian = test system: SK-OV-3 ovarian
IGROV1 ovarian = test system: IGROV1 ovarian
SK-MEL-28 melanoma = test system: SK-MEL-28 melanoma
OVCAR-5 ovarian = test system: OVCAR-5 ovarian
HCC-2998 colon = test system: HCC-2998 colon
HL-60(TB) leukemia = test system: HL-60(TB) leukemia
T-47D breast = test system: T-47D breast
HCT-116 colon = test system: HCT-116 colon
EKVX NSCLC = test system: EKVX NSCLC
M14 melanoma = test system: M14 melanoma
HOP-92 NSCLC = test system: HOP-92 NSCLC
SR leukemia = test system: SR leukemia
SN12C renal = test system: SN12C renal
NCI-H226 lung = test system: NCI-H226 lung
ACHN renal = test system: ACHN renal
PC-3 prostate = test system: PC-3 prostate
RPMI-8226 leukemia = test system: RPMI-8226 leukemia
HCT-15 colon = test system: HCT-15 colon
SF-539 CNS = test system: SF-539 CNS
UO-31 renal = test system: UO-31 renal
SW-620 colon = test system: SW-620 colon
MDA-MB-435 = test system: MDA-MB-435
SNB-75 CNS = test system: SNB-75 CNS
U251 CNS = test system: U251 CNS
A498 renal = test system: A498 renal
786-0 renal = test system: 786-0 renal
CCRF-CEM leukemia = test system: CCRF-CEM leukemia
UACC-62 melanoma = test system: UACC-62 melanoma
LOX IMVI melanoma = test system: LOX IMVI melanoma
DU-145 prostate = test system: DU-145 prostate
KM12 colon = test system: KM12 colon
OVCAR-3 ovarian = test system: OVCAR-3 ovarian
NCI-H23 lung = test system: NCI-H23 lung
OVCAR-4 ovarian = test system: OVCAR-4 ovarian
K-562 leukemia = test system: K-562 leukemia
OVCAR-8 ovarian = test system: OVCAR-8 ovarian
MOLT-4 leukemia = test system: MOLT-4 leukemia
HS 578T breast = test system: HS 578T breast
COLO 205 colon = test system: COLO 205 colon
MCF7 breast = test system: MCF7 breast

With `CN(C)/C=N/S(=O)(=O)c1nn2c(C=O)c(-c3ccc(-c4ccccc4)cc3)nc2s1` the TGI (SNB-19 CNS) was 25.5 µM, the TGI (NCI/ADR-RES ovarian) was greater than 86.8 µM and the TGI (HOP-62 NSCLC) was 22.9 µM. For the same compound, the TGI (MDA-MB-231 breast) was 7.35 µM, the TGI (SK-MEL-2 melanoma) was 8.24 µM and the TGI (SK-MEL-5 melanoma) was 3.04 µM. The TGI (HT29 colon) was 1.49 µM, the TGI (NCI-H460 lung) was 13.7 µM and the TGI (UACC-257 melanoma) was 9.31 µM. The TGI (SF-295 CNS) was 42.5 µM, the TGI (RXF 393 renal) was 4.49 µM and the TGI (SF-268 CNS) was 6.23 µM. For the same compound, the TGI (MALME-3M melanoma) was 2.71 µM, the TGI (CAKI-1 renal) was 2.88 µM and the TGI (A549 NSCLC) was greater than 44.5 µM. The TGI (TK-10 renal) was 3.83 µM, the TGI (BT-549 breast) was 3.05 µM and the TGI (NCI-H522 lung) was 1.6 µM. It also gave a TGI (SK-OV-3 ovarian) of 36.2 µM, a TGI (IGROV1 ovarian) of 2.59 µM and a TGI (SK-MEL-28 melanoma) of 4.33 µM. The TGI (OVCAR-5 ovarian) was 25.3 µM, the TGI (HCC-2998 colon) was 11.7 µM and the TGI (HL-60(TB) leukemia) was 0.342 µM. It also gave a TGI (T-47D breast) of 5.57 µM, a TGI (HCT-116 colon) of 2.99 µM and a TGI (EKVX NSCLC) of 19.8 µM. The TGI (M14 melanoma) was 3.12 µM, the TGI (HOP-92 NSCLC) was 10.1 µM and the TGI (SR leukemia) was 1.89 µM. For the same compound, the TGI (SN12C renal) was 3.19 µM, the TGI (NCI-H226 lung) was 32.4 µM and the TGI (ACHN renal) was 3.18 µM. The TGI (PC-3 prostate) was 5.07 µM, the TGI (RPMI-8226 leukemia) was 3 µM and the TGI (HCT-15 colon) was 7.75 µM. The TGI (SF-539 CNS) was 7.54 µM, the TGI (UO-31 renal) was 2.73 µM and the TGI (SW-620 colon) was greater than 26.9 µM. For the same compound, the TGI (MDA-MB-435) was 4.8 µM, the TGI (SNB-75 CNS) was 18.3 µM and the TGI (U251 CNS) was 3.17 µM. For the same compound, the TGI (A498 renal) was 47.5 µM, the TGI (786-0 renal) was 2.99 µM and the TGI (CCRF-CEM leukemia) was 0.647 µM. For the same compound, the TGI (UACC-62 melanoma) was 6.45 µM, the TGI (LOX IMVI melanoma) was 2.76 µM and the TGI (DU-145 prostate) was 6.13 µM. The TGI (KM12 colon) was 7.36 µM, the TGI (OVCAR-3 ovarian) was 3.73 µM and the TGI (NCI-H23 lung) was 4.55 µM. The TGI (OVCAR-4 ovarian) was 4.24 µM.
Compound `CC(=O)O[C@H]1[C@@H](N2CCCCC2)C[C@H]2[C@@H]3CC=C4C[C@@H](N5CCCC5)CC[C@]4(C)[C@H]3CC[C@@]21C` has a TGI (SNB-19 CNS) greater than 100 µM, a TGI (NCI/ADR-RES ovarian) greater than 100 µM and a TGI (HOP-62 NSCLC) greater than 100 µM. It also gave a TGI (MDA-MB-231 breast) greater than 100 µM, a TGI (SK-MEL-2 melanoma) greater than 100 µM and a TGI (SK-MEL-5 melanoma) greater than 100 µM. For the same compound, the TGI (HT29 colon) was greater than 100 µM, the TGI (NCI-H460 lung) was greater than 100 µM and the TGI (UACC-257 melanoma) was 87.7 µM. It also gave a TGI (K-562 leukemia) of 22.5 µM, a TGI (SF-295 CNS) greater than 100 µM and a TGI (RXF 393 renal) greater than 100 µM. It also gave a TGI (SF-268 CNS) greater than 100 µM, a TGI (MALME-3M melanoma) of 52.4 µM and a TGI (CAKI-1 renal) greater than 100 µM. It also gave a TGI (A549 NSCLC) greater than 100 µM, a TGI (TK-10 renal) greater than 100 µM and a TGI (OVCAR-8 ovarian) greater than 100 µM. It also gave a TGI (BT-549 breast) greater than 100 µM, a TGI (NCI-H522 lung) greater than 100 µM and a TGI (SK-OV-3 ovarian) greater than 100 µM. For the same compound, the TGI (IGROV1 ovarian) was greater than 100 µM, the TGI (MOLT-4 leukemia) was greater than 100 µM and the TGI (HS 578T breast) was greater than 100 µM. For the same compound, the TGI (SK-MEL-28 melanoma) was 48.9 µM, the TGI (OVCAR-5 ovarian) was greater than 100 µM and the TGI (HCC-2998 colon) was 34.4 µM. It also gave a TGI (HL-60(TB) leukemia) greater than 100 µM, a TGI (T-47D breast) greater than 100 µM and a TGI (HCT-116 colon) greater than 100 µM. For the same compound, the TGI (COLO 205 colon) was greater than 100 µM, the TGI (EKVX NSCLC) was greater than 100 µM and the TGI (M14 melanoma) was 36.4 µM. The TGI (HOP-92 NSCLC) was greater than 100 µM, the TGI (SR leukemia) was 8.96 µM and the TGI (SN12C renal) was greater than 100 µM. It also gave a TGI (NCI-H226 lung) greater than 100 µM, a TGI (ACHN renal) greater than 100 µM and a TGI (PC-3 prostate) greater than 100 µM. The TGI (RPMI-8226 leukemia) was 92.9 µM, the TGI (HCT-15 colon) was greater than 100 µM and the TGI (MCF7 breast) was greater than 100 µM. It also gave a TGI (SF-539 CNS) of 34.5 µM, a TGI (UO-31 renal) greater than 100 µM and a TGI (SW-620 colon) greater than 100 µM. For the same compound, the TGI (MDA-MB-435) was greater than 100 µM, the TGI (SNB-75 CNS) was greater than 100 µM and the TGI (U251 CNS) was greater than 100 µM. It also gave a TGI (A498 renal) greater than 100 µM, a TGI (786-0 renal) greater than 100 µM and a TGI (CCRF-CEM leukemia) greater than 100 µM. For the same compound, the TGI (UACC-62 melanoma) was greater than 100 µM, the TGI (LOX IMVI melanoma) was greater than 100 µM and the TGI (KM12 colon) was greater than 100 µM. For the same compound, the TGI (OVCAR-3 ovarian) was greater than 100 µM, the TGI (NCI-H23 lung) was greater than 100 µM and the TGI (OVCAR-4 ovarian) was greater than 100 µM.
